Legend:
colon 38 tumours = test: Tumour growth delay assay; assay type: in vivo, mice
Experimental: C57B1/6 mice from the Animal Resource Unit, University of Auckland, were bred and housed under conditions of constant temperature and humidity, with sterile bedding and food, according to institutional ethical guidelines. All mice were aged between 8 and 12 weeks.
DMXAA was synthesized as the sodium salt (Rewcastle et al., (1990) Journal of National Cancer Institute 82:528-529). DMXAA sodium salt was dissolved in neutral aqueous solution and 25 mg/kg, in a volume of 0.1 ml per 10 g body weight, was injected intraperitoneally (i.p.) into mice.
Vioxx™ (Sigma) was made up in neutral aqueous solution and 100 or 150 mg/kg, in a volume of 0.1 ml per 10 g body weight, was injected intraperitoneally (i.p.) into mice. […]
Colon 38 tumour fragments (˜1 mm^3) were implanted subcutaneously (s.c.) in anaesthetized (sodium pentobarbitone, 90 mg/kg) mice. […] Tumour-bearing mice were treated with drugs according to the administration schedule described before, and the tumours measured using calipers, at three day intervals thereafter. Tumour volumes were calculated as 0.52a^2b, where a and b are the minor and major axes of the tumour, respectively. The arithmetic means were calculated for each time point, counting cured tumours as zero volume. The growth delay was determined as the difference in the number of days required for the control versus treated tumours to increase four times in volume. […]

tumour blood flow = settings: human tumours, well-tolerated doses, dynamic MRI; cited from earlier work

Cc1ccc2c(=O)c3cccc(CC(=O)O)c3oc2c1C [DMXAA, 5,6-dimethylxanthenone-4-acetic acid]
mice cured (colon 38 tumours; DMXAA alone 25 mg/kg i.p., colon 38 tumours s.c. in mice, 6 mice): None and no cure
tumour blood flow (tumour blood flow): significant reduction

CS(=O)(=O)c1ccc(C2=C(c3ccccc3)C(=O)OC2)cc1 [Vioxx™, rofecoxib, reference compound]
effect on the growth of colon 38 tumours (colon 38 tumours; Vioxx alone 150 mg/kg i.p., colon 38 tumours s.c. in C57Bl/6 mice): no significant effect

— patent publication US20070082937A1, “Anti cancer combinations comprising a cox-2 inhibitor” (Cancer Research Technology Limited, priority 2003, published 2007)
